# Patent publication US20140121235A1, “Method for Treating S6K-Overexpressing Cancers” (Rush University Medical Center, priority 2012, published 2014)
# “Also recorded” adds a separate entry of the source.
# Tests used:
# BT-20 cells = test: Western blot of protein phosphorylation in BT-20 cells; assay type: cell-based
# Method: (A) A77 1726 induces MAP kinase activation in A375 cells cultured in 10% fetal bovine serum. A375 cells were seeded in a 6-well plate overnight and then stimulated with various concentrations of A77 1726 or PLX 4720 (1 μM) for 2 hr. Cells were harvested and analyzed for MAP kinase activation by anti-phospho-ERK1/2 antibody. The membrane was stripped and re-probed with anti-ERK1/2 antibody. (B) Lack of the feedback activation of the MAP and PI-3 kinase pathways in BT-20 cells. BT20 cells seeded in 6-well plates were starved in DMEM medium containing 05% EBS for 2 hr and treated with A77 1726 (0, 50 or 100 μM), Cells were harvested and analyzed for protein phosphorylation by specific antibodies as indicated. Protein loading was monitored by stripping membrane and re-probing with antibodies against non-phosphorylated proteins. (C) Strong feedback activation of the PI-3 kinase pathway and weak feedback activation of the MAP kinase pathway in MCF-7 cells by A77 1726 and rapamycin. […] Cells were harvested and analyzed for protein phosphorylation with the indicated antibodies. […] Cells were harvested and analyzed for protein phosphorylation by specific antibodies as indicated. Protein loading was monitored by stripping membrane and re-probing with antibodies against nonphosphorylated proteins. […]
# [1] = cited from earlier work
# [2] = test system: ERK1/2^T202/Y204 and MEK1/2^S217/S221 phosphorylation; test: Western blot of MAP kinase pathway phosphorylation in A375 cells; assay type: cell-based; conditions: A375 cells starved in 0.5% FBS; A77 1726 or leflunomide at indicated concentrations, 2 hr
# Method: A375 cells seeded in a 6-well plate were starved in DMEM medium containing 0.5% FBS for 2 hr and treated with the indicated concentration of A77 1726 or PLX 4720 (1 μM) for another 2 hr (A) or treated with A77 1726 (100 μM) for the indicated time (B & C). Cells were harvested and analyzed for protein phosphorylation by specific antibodies as indicated. Protein loading was monitored by stripping membrane and re-probing with antibodies against non-phosphorylated proteins. […] A375 cells seeded in a 6-well plate were starved in DMEM medium containing 05% FBS for 2 hr and treated with the indicated concentration of A77 1726 in the absence or presence of uridine (200 μM). Phosphorylated and total proteins were analyzed by Western blot as described above.
# A375 cells seeded in 6-well plates were starved in DMEM medium containing 0.5% FBS for 2 hr and then pre-treated with vehicle (0.1% dimethyl sulfoxide), LY294002 (10 μM) (A), PPP (1 μM) (B), or the inhibitors of the MAP kinase pathway (PLX4720, 1 μM; U0126, 10 μM; PD98059, 10 μM) (C) for 1 hr. Cells were then treated with A77 1726 (100 μM) or rapamycin (20 nM) as indicated for 2 hr. Cells were harvested and analyzed for protein phosphorylation by specific antibodies as indicated. Protein loading was monitored by stripping membrane and re-probing with antibodies against non-phosphorylated proteins.
# Cells grown in 6-well plates were harvested and lysed in NP-40 lysis buffer (50 mM Tris-HCI (pH 8.0), 150 mM NaCl, 1% NP-40, 5 mM EDTA, 10 μg/ml aprotinin, 10 μg/ml leupeptin, and 1 mM phenylmethylsulfonyl fluoride). After incubation on ice for 30 min, the cell lysates were prepared by spinning down at 4° C., 15,000 rpm for 15 min. After electrophoresis and transfer to Immobolin membrane, proteins of interest were probed with their specific antibodies, followed by horseradish peroxidase-conjugated goat anti-rabbit IgG and SuperSignal Western Pico enhanced chemiluminoscence substrate (Pierce Chemical Co., Rockford, Ill.).
# The PI-3 and MAP kinase pathways play an important role in cell proliferation, differentiation, and cell cycle progress. Multiple genes in these two pathways are frequently mutated and have a commanding role in driving tumorigenesis and tumor cell proliferation (2; 3). […] Here we tested whether A77 1726 affected the activation of MAP and PI-3 kinase pathways. A375 cells grown in 6-well plates were starved in the media containing 0.5% FBS for 2 hr and then treated with the indicated concentration of A77 1726. […] We next explored the effect of A77 1726 in phosphorylation of the molecules in the PI-3 kinase pathway.
# [3] = test system: carbomoyl-phosphate synthetase 2 (CAD) Ser-1859 phosphorylation; test: CAD phosphorylation in A375 cells (phosphor-specific antibody); assay type: cell-based; conditions: A375 cells, 0, 50, 100 or 200 μM for 2 hours
# Method: FIG. 12 illustrates inhibition of carbamoyl-phosphate synthetase 2 (CAD) by A 77 1726.
# The ability of […] to inhibit phosphorylation of CAD at the Ser-1859 site was tested. A375 melanoma tumor cell line cultures were pretreated with the 0, 50, 100 or 200 μM A 771726 for 2 hours. Total cell lysates were prepared and analyzed for the phosphorylation of CAD by a phosphor-specific antibody.
# [4] = target: recombinant p70 S6 kinase (S6K1) (Homo sapiens, UniProt P23443); test: In vitro p70 S6 kinase assay (ADP-Glo Kinase assay system); assay type: biochemical; conditions: 30 min pre-incubation, ATP 10 μM, 1 hr, read-out: IC50, inhibition of recombinant S6K1 activity
# recombinant p70 S6 kinase (S6K1), sequence (P23443 whole entry): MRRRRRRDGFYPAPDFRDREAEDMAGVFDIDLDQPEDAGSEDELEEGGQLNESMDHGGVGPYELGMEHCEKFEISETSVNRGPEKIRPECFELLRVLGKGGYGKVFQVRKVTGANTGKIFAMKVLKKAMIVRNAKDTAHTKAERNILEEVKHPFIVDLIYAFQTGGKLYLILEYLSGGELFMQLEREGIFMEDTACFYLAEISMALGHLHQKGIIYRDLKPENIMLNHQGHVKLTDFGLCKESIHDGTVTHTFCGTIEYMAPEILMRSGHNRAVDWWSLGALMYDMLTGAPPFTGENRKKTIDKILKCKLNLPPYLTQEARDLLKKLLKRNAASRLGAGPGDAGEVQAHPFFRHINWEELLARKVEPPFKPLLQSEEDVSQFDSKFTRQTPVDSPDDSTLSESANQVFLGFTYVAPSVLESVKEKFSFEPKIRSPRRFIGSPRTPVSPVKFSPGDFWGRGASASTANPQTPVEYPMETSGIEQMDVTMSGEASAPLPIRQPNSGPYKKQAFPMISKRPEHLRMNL
# Method: Leflunomide and A77 1726 diluted at the final concentrations as indicated were pre-mixed with S6K1 for 30 min, followed by the addition of peptide substrate of S6K1 and incubation for 1 hr. S6K1 activity was measured by using a ADP-Glo™ system. The experiment was repeated with similar results. The data represents the mean±standard deviation from one experiment in triplicate.
# The ability of lefiunomide and A77 1726 to inhibit p70 S6 kinase assay was conducted by using an ADP-Glo™ Kinase assay system (Promega Corporation, Madison, Wis.). Briefly, A77 1726 or leflunomide diluted in the kinase buffer was mixed with recombinant p70 S6 kinase (100 ng/reaction) and incubated at room temperature for 30 min. Peptide substrate of p70 S6 kinase (5 μg/reaction) and ATP (10 μM, final concentration) was added, with a total final volume of 25 μl. After incubation for 1 hr, ADP-Glo™ reagent (25 μl) was added to each reaction. After incubation for 40 min, kinase detection substrate (luciferin) (50 μl/reaction) was added. After incubation fix 30 min, luciferase activity was measured by reading in a luminescence plate reader. The experiment was conducted in triplicate and repeated once with similar results. The data from one experiment were presented as mean±standard deviation.
# [5] = rheumatoid arthritis patients treated with leflunomide 20 mg/day; cited from earlier work
# [6] = mice, single dose of 35 mg/kg of leflunomide
smiles,measurement,setting,value
C/C(O)=C(\C#N)C(=O)Nc1ccc(C(F)(F)F)cc1 [A77 1726],effect on ERK phosphorylation,BT-20 cells,had no effect
same,effect on S6^S235/236 phosphorylation,BT-20 cells,Inhibition
same,serum half-life of A77 1726,[1]; mice treated with leflunomide at a dose of 35 mg,15 h
same,serum concentration of A77 1726 at 24 hr,"[1]; mice, 24 hr after single dose of 35 mg/kg of leflunomide",250 µM
same,peak serum concentration of A77 1726,[1]; [6],500 µM
same,time to peak concentration of A77 1726,[1]; [6],≤ 4 h
same,effect on ERK1/2 and MEK phosphorylation,[2],rapidly and potently induced; also recorded: strongly induced
same,effect on CAD phosphorylation at Ser-1859,[3],inhibited phosphorylation in a dose-dependent manner
same,IC50,[4],~80 µM
same,plasma concentration of A77 1726,[5],≤ 200 µM
